Results reported in patent publication US9090628B2, “Benzoxazepin compounds selective for PI3K P110 delta and methods of use” (GENENTECH, INC., priority 2011, dated 2015).
pIC50: −log10 of the molar value.

Key:
p110 delta = p110 delta (Homo sapiens (Human), UniProt O00329); test: PI3K isoform inhibition assay, p110 delta (fluorescence polarization displacement); assay type: biochemical
p110 alpha = p110 alpha (Homo sapiens (Human), UniProt P42336); test: PI3K isoform inhibition assay, p110 alpha (for alpha/delta selectivity); conditions: ratio of biochemical IC50 values
Sequence of p110 alpha (P42336 whole entry, canonical isoform): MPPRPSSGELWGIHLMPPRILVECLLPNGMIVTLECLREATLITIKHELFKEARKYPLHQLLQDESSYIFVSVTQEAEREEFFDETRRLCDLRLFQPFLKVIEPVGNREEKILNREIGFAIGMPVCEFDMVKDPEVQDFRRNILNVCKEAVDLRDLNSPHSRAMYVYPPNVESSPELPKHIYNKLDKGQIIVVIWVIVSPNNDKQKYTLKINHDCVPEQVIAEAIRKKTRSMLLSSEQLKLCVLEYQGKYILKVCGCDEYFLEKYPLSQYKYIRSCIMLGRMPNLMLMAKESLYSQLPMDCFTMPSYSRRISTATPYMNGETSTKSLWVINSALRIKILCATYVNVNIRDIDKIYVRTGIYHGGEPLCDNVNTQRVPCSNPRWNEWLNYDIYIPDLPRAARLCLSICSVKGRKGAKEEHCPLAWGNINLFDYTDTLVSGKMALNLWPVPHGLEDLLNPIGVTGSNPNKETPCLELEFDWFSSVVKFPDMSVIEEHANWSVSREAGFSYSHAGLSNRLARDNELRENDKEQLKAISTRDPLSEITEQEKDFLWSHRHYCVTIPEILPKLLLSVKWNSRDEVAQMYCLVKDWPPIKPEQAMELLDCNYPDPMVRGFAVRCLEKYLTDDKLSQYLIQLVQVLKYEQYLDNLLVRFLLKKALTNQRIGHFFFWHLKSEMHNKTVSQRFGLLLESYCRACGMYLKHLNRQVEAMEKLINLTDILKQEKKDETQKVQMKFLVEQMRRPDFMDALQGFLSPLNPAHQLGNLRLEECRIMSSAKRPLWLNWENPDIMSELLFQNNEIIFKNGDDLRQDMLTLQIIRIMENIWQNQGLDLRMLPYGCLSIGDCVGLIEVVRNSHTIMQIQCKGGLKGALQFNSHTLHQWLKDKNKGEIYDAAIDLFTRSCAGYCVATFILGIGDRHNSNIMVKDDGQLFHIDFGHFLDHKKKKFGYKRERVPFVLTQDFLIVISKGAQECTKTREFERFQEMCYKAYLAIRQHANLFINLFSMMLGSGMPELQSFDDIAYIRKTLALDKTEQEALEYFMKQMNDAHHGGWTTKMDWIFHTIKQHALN
Sequence of p110 alpha (P27986 whole entry partner, canonical isoform): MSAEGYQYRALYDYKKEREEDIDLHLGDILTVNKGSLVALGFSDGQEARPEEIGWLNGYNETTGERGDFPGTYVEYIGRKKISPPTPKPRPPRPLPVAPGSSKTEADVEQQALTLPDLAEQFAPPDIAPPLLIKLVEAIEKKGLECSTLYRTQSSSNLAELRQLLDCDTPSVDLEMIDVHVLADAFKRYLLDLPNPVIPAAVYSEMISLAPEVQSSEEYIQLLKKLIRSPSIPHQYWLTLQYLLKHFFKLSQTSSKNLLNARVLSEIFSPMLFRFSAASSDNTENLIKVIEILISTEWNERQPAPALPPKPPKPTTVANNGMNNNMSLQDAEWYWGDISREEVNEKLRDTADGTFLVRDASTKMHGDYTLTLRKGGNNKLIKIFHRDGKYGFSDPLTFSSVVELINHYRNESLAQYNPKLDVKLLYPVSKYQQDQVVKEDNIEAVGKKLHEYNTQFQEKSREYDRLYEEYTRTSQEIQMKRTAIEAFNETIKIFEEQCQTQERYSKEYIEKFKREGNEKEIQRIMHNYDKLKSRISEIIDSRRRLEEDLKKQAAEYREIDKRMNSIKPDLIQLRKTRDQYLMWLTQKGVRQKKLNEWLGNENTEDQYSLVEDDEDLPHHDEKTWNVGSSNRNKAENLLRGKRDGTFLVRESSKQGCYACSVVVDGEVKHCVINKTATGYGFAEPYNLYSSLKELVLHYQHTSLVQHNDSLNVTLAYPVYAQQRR
Method in brief: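 Fluorescence polarization displacement of a fluorescent PIP3 probe from GRP-1 detector by PI3K-formed PIP3; p110α/p85α at 40 ng/mL with 10 μM PIP2 substrate.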

Sequence of p110 delta (O00329 whole entry, canonical isoform): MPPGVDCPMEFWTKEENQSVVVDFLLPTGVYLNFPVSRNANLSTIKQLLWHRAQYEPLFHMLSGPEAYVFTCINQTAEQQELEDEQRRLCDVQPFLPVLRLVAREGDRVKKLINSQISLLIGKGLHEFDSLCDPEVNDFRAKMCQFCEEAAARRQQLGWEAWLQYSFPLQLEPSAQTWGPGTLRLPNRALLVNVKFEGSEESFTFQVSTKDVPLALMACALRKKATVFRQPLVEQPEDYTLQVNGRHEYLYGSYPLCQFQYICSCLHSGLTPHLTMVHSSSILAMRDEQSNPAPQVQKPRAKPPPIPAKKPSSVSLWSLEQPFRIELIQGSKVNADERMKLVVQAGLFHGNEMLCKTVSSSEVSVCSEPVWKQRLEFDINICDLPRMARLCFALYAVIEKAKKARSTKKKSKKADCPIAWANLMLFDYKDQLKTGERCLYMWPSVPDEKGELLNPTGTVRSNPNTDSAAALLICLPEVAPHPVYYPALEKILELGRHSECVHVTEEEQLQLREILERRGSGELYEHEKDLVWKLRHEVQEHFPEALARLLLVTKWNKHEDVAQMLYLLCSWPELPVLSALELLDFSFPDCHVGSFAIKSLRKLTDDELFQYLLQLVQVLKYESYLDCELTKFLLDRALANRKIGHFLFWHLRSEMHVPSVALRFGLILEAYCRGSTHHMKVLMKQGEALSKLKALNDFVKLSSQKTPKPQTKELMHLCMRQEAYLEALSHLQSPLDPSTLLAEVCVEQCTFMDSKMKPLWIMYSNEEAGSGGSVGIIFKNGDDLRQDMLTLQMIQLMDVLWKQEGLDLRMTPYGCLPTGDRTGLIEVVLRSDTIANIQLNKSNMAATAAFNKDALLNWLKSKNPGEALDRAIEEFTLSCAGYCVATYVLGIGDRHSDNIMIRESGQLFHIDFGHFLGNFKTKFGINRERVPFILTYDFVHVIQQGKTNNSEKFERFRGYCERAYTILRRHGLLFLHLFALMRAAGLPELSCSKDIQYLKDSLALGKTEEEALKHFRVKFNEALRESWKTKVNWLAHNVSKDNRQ
Sequence of p110 delta (P27986 whole entry partner, canonical isoform): as the sequence (P27986 whole entry partner, canonical isoform) above

pIC50 (p110 delta) | IC50 p110 alpha/IC50 p110 delta (p110 alpha) | Compound
8.06 | 32.1 | Cc1nc(-c2cn3c(n2)-c2ccc(OC4(CC(C)C)CN(C(C)C)C4)cc2OCC3)n(C(C)C)n1 [Example 301, 9-(3-isobutyl-1-isopropyl-azetidin-3-yl)oxy-2-(2-isopropyl-5-methyl-1,2,4-triazol-3-yl)-5,6-dihydroimidazo[1,2-d][1,4]benzoxazepine]
8.63 | 27.2 | CCN(CC)C1CCOC(c2c(-c3ccc4c(c3)OCCn3cc(-c5nc(C)nn5C(C)C)nc3-4)cnn2C)C1 (centres unmarked) [Example 333, N,N-diethyl-2-[4-[2-(2-isopropyl-5-methyl-1,2,4-triazol-3-yl)-5,6-dihydroimidazo[1,2-d][1,4]benzoxazepin-9-yl]-2-methyl-pyrazol-3-yl]tetrahydropyran-4-amine]
8.98 | 45.5 | COc1cc2c(cc1[C@@H](C)N1CCN(C(C)(C)C)CC1)-c1nc(-c3nc(C)nn3C(C)C)cn1CCO2 [Example 356, (R)-10-(1-(4-tert-butylpiperazin-1-yl)ethyl)-2-(1-isopropyl-3-methyl-1H-1,2,4-triazol-5-yl)-9-methoxy-5,6-dihydrobenzo[f]imidazo[1,2-d][1,4]oxazepine]
8.41 | 20.8 | CC(C)n1nc(N)nc1-c1cn2c(n1)-c1ccc(-c3ccnn3C3CCN(C(C)(C)C)CC3)cc1OCC2 [Example 327, 5-[9-[2-(1-tert-butyl-4-piperidyl)pyrazol-3-yl]-5,6-dihydroimidazo[1,2-d][1,4]benzoxazepin-2-yl]-1-isopropyl-1,2,4-triazol-3-amine]
7.09 | 10.2 | Cc1nc(-c2cn3c(n2)-c2ccc(-c4ncnn4C4CCN(C(C)(C)C)CC4)cc2OCC3)n(C(C)C)n1 [Example 258, 9-(1-(1-tert-butylpiperidin-4-yl)-1H-1,2,4-triazol-5-yl)-2-(1-isopropyl-3-methyl-1H-1,2,4-triazol-5-yl)-5,6-dihydrobenzo[f]imidazo[1,2-d][1,4]oxazepine]
8.60 | 22.1 | Cc1nc(-c2cn3c(n2)-c2ccc(N4CCCC4C4CCCN(C)C4)cc2OCC3)n(C(C)C)n1 (centres unmarked) [Example 321, 2-(2-isopropyl-5-methyl-1,2,4-triazol-3-yl)-9-[2-(1-methyl-3-piperidyl)pyrrolidin-1-yl]-5,6-dihydroimidazo[1,2-d][1,4]benzoxazepine]
7.75 | 10.8 | Cc1nc(-c2cn3c(n2)-c2cc(C(O)C4CCN(C)CC4)ccc2OCC3)n(C(C)C)n1 (centres unmarked) [Example 276, [2-(2-isopropyl-5-methyl-1,2,4-triazol-3-yl)-5,6-dihydroimidazo[1,2-d][1,4]benzoxazepin-10-yl]-(1-methyl-4-piperidyl)methanol]
8.64 | 96.5 | Cc1nc(-c2cn3c(n2)-c2ccc(-c4cnn(C)c4C4CC(N(C)C(C)C)CCO4)cc2OCC3)n(C(C)C)n1 (centres unmarked) [Example 335, N-isopropyl-2-[4-[2-(2-isopropyl-5-methyl-1,2,4-triazol-3-yl)-5,6-dihydroimidazo[1,2-d][1,4]benzoxazepin-9-yl]-2-methyl-pyrazol-3-yl]-N-methyl-tetrahydropyran-4-amine]
8.91 | 66 | Cc1nc(-c2cn3c(n2)-c2ccc(-c4cnn(C)c4C4CC(N(C)C(C)C)CCO4)cc2OCC3)n(C(C)C)n1 (centres unmarked) [Example 344, N-isopropyl-2-[4-[2-(2-isopropyl-5-methyl-1,2,4-triazol-3-yl)-5,6-dihydroimidazo[1,2-d][1,4]benzoxazepin-9-yl]-2-methyl-pyrazol-3-yl]-N-methyl-tetrahydropyran-4-amine]
8.07 | 21.8 | Cc1nc(-c2cn3c(n2)-c2ccc(-c4ccnn4C4CCCN(Cc5ccccc5)C4)cc2OCC3)n(C(C)C)n1 (centres unmarked) [Example 262, 9-(1-(1-benzylpiperidin-3-yl)-1H-pyrazol-5-yl)-2-(1-isopropyl-3-methyl-1H-1,2,4-triazol-5-yl)-5,6-dihydrobenzo[f]imidazo[1,2-d][1,4]oxazepine]
9.20 | 9.8 | Cc1nc(-c2cn3c(n2)-c2ccc(OC4(C)CNC4)cc2OCC3)n(C(C)C)n1 [Example 271, 2-(2-isopropyl-5-methyl-1,2,4-triazol-3-yl)-9-(3-methylazetidin-3-yl)oxy-5,6-dihydroimidazo[1,2-d][1,4]benzoxazepine]
9.75 | 29.4 | Cc1nc(-c2cn3c(n2)-c2ccc(N4CCCC45CCCN(C)C5)cc2OCC3)n(C(C)C)n1 (centres unmarked) [Example 318, 2-(2-isopropyl-5-methyl-1,2,4-triazol-3-yl)-9-(7-methyl-1,7-diazaspiro[4.5]decan-1-yl)-5,6-dihydroimidazo[1,2-d][1,4]benzoxazepine]
9.35 | 31.4 | Cc1nc(-c2cn3c(n2)-c2ccc(N4CCCC4CN(C)C)cc2OCC3)n(C(C)C)n1 (centres unmarked) [Example 348, 1-[1-[2-(2-isopropyl-5-methyl-1,2,4-triazol-3-yl)-5,6-dihydroimidazo[1,2-d][1,4]benzoxazepin-9-yl]pyrrolidin-2-yl]-N,N-dimethyl-methanamine]
7.98 | 17.3 | Cc1nc(-c2cn3c(n2)-c2cc([C@@H](C)N4CCN(CC(C)(C)O)CC4)c(F)cc2OCC3)n(C(C)C)n1 [Example 334, (R)-1-(4-(1-(9-fluoro-2-(1-isopropyl-3-methyl-1H-1,2,4-triazol-5-yl)-5,6-dihydrobenzo[f]imidazo[1,2-d][1,4]oxazepin-10-yl)ethyl)piperizan-1-yl)-2-methylpropan-2-ol]
9.47 | 50.1 | Cc1nc(-c2cn3c(n2)-c2ccc(N4CCCC45CCCN(C)C5)cc2OCC3)n(C(C)C)n1 (centres unmarked) [Example 314, 2-(2-isopropyl-5-methyl-1,2,4-triazol-3-yl)-9-(7-methyl-1,7-diazaspiro[4.5]decan-1-yl)-5,6-dihydroimidazo[1,2-d][1,4]benzoxazepine]
8.97 | 92.4 | COc1cc2c(cc1[C@@H](C)N1CCN(C(C)(C)C)CC1)-c1nc(-c3nc(C)nn3C(C)C)cn1CCO2 [Example 368, 10-[(1R)-1-(4-tert-butylpiperazin-1-yl)ethyl]-2-(2-isopropyl-5-methyl-1,2,4-triazol-3-yl)-9-methoxy-5,6-dihydroimidazo[1,2-d][1,4]benzoxazepine]
8.55 | 26.3 | Cc1nc(-c2cn3c(n2)-c2ccc(N4CCCC4C4CCCN(C)C4)cc2OCC3)n(C(C)C)n1 (centres unmarked) [Example 319, 2-(2-isopropyl-5-methyl-1,2,4-triazol-3-yl)-9-[2-(1-methyl-3-piperidyl)pyrrolidin-1-yl]-5,6-dihydroimidazo[1,2-d][1,4]benzoxazepine]
8.66 | 34 | Cc1nc(-c2cn3c(n2)-c2ccc(N4CCCC4C4CCN(CC(C)(C)O)CC4)cc2OCC3)n(C(C)C)n1 (centres unmarked) [Example 274, 1-[4-[1-[2-(2-isopropyl-5-methyl-1,2,4-triazol-3-yl)-5,6-dihydroimidazo[1,2-d][1,4]benzoxazepin-9-yl]pyrrolidin-2-yl]-1-piperidyl]-2-methyl-propan-2-ol]
8.83 | 10.3 | Cc1nc(-c2cn3c(n2)-c2ccc(N4CCC4C4CCN(C(C)C)CC4)cc2OCC3)n(C(C)C)n1 (centres unmarked) [Example 293, 2-(2-isopropyl-5-methyl-1,2,4-triazol-3-yl)-9-[2-(1-isopropyl-4-piperidyl)azetidin-1-yl]-5,6-dihydroimidazo[1,2-d][1,4]benzoxazepine]
8.81 | 67.1 | Cc1nc(-c2cn3c(n2)-c2cc(-c4cnn(C)c4C4CCCN(C(C)C)C4)c(F)cc2OCC3)n(C(C)C)n1 (centres unmarked) [Example 358, 9-fluoro-2-(2-isopropyl-5-methyl-1,2,4-triazol-3-yl)-10-[5-(1-isopropyl-3-piperidyl)-1-methyl-pyrazol-4-yl]-5,6-dihydroimidazo[1,2-d][1,4]benzoxazepine]
9.03 | 53 | Cc1nc(-c2cn3c(n2)-c2ccc(-c4cnn(C)c4C4CC(N(C)C(C)C)CCO4)cc2OCC3)n(C(C)C)n1 (centres unmarked) [Example 343, N-isopropyl-2-[4-[2-(2-isopropyl-5-methyl-1,2,4-triazol-3-yl)-5,6-dihydroimidazo[1,2-d][1,4]benzoxazepin-9-yl]-2-methyl-pyrazol-3-yl]-N-methyl-tetrahydropyran-4-amine]
9.50 | 151 | Cc1nc(-c2cn3c(n2)-c2cc(-c4ccnn4C4CCCN(C(C)(C)CO)C4)c(F)cc2OCC3)n(C(C)C)n1 [Example 353, (R)-2-(3-(5-(9-fluoro-2-(1-isopropyl-3-methyl-1H-1,2,4-triazol-5-yl)-5,6-dihydrobenzo[f]imidazo[1,2-d][1,4]oxazepin-10-yl)-1H-pyrazol-1-yl)piperidin-1-yl)-2-methylpropan-1-ol]
6.86 | 15 | Cc1nc(-c2cn3c(n2)-c2ccc(N4CCCC4C4CCCCN4C)cc2OCC3)n(C(C)C)n1 (centres unmarked) [Example 324, 2-(2-isopropyl-5-methyl-1,2,4-triazol-3-yl)-9-[2-(1-methyl-2-piperidyl)pyrrolidin-1-yl]-5,6-dihydroimidazo[1,2-d][1,4]benzoxazepine]

Compound | pIC50 (p110 delta) | IC50 p110 alpha/IC50 p110 delta (p110 alpha)
Cc1nc(-c2cn3c(n2)-c2cc([C@@H](C)N4CCN(C(C)(C)C)CC4)c(F)cc2OCC3)n(C(C)C)n1 [Example 294, (R)-10-(1-(4-tert-butylpiperazin-1-yl)ethyl)-9-fluoro-2-(1-isopropyl-3-methyl-1H-1,2,4-triazol-5-yl)-5,6-dihydrobenzo[f]imidazo[1,2-d][1,4]oxazepine] | 9.11 | 479
CC(C)n1ncnc1-c1cn2c(n1)-c1cc([S+]([O-])C3CCN(C(C)(C)C)CC3)ccc1OCC2 (centres unmarked) [Example 270, 10-(1-tert-butylpiperidin-4-ylsulfinyl)-2-(1-isopropyl-1H-1,2,4-triazol-5-yl)-5,6-dihydrobenzo[f]imidazo[1,2-d][1,4]oxazepine] | 9.09 | 184
